Target: T1, human Nav1.7 (Homo sapiens, UniProt Q15858)
T1 construct: expressed in transfected cells
Experiment: Assessment of Nav1.7 activity on PatchXpress (voltage dependence / slow inactivation parameters)
Type: cell-based
Conditions: compound at 10 μM, relative to 0.2% DMSO vehicle control; for hNav1.7: Reduction in current at 20 mV (normalized data) Delta Ratio: before/after 30 sec conditioning pulse at 20 mV; for hNav1.7: Shift in voltage dependence of inactivation (mV) Delta Vhalf: PatchXpress
Experimental: The generation of a HEK 293F cell line stably expressing human Nav1.7/Navp1 was achieved by co-transfecting human SCN9A and human SCN1B cDNAs, subcloned into plasmid vectors, utilizing standard transfection techniques. Clones were selected using appropriate selection agents (0.3 mg/mL Zeocin and 0.8 mg/mL Geneticin) and maintained in Dulbecco's Modified Eagle medium, 10% fetal bovine serum, 1% non-essential amino acids to ˜80% confluence at 37° C. in a humidified incubator with 95% atmosphere and 5% CO2.
On the day of each experiment, cells that were grown to 80% confluence in a T75 flask were harvested for use on PatchXpress (Molecular Devices, CA, USA). Following a recovery period at 37° C. in a humidified incubator with 95% atmosphere and 5% CO2 in Dulbecco's Modified Eagle Medium, the media was replaced with an external recording solution containing (in mM): 90 TEACI, 50 NaCl, 1.8 CaCl2, 1 MgCl2, 10 HEPES, 10 glucose, adjusted to pH 7.4 with TEAOH and 300 mOsm with sucrose. The internal recording solution contained (in mM): 129 CsF, 2 MgCl2, 11 EGTA, 10 HEPES, 6 NaCl, 3 Na2ATP adjusted to pH 7.2 with CsOH and 280 mOsm with sucrose. The automated liquid handling facility of PatchXpress dispensed cells and added compound. Modulation of Nav1.7 channels by compounds was assessed by promoting the channels into the inactivated state using a conditioning voltage pulse of variable amplitude, followed by a brief hyperpolarizing pulse with a subsequent depolarized voltage step to measure the current amplitude in the presence and absence of compound. Compounds were assayed at 10 μM. Based upon this Patch express protocol, four electrophysiological parameters were measured relative to a 0.2% DMSO vehicle control (Table 2).

T1 sequence (Q15858 whole entry): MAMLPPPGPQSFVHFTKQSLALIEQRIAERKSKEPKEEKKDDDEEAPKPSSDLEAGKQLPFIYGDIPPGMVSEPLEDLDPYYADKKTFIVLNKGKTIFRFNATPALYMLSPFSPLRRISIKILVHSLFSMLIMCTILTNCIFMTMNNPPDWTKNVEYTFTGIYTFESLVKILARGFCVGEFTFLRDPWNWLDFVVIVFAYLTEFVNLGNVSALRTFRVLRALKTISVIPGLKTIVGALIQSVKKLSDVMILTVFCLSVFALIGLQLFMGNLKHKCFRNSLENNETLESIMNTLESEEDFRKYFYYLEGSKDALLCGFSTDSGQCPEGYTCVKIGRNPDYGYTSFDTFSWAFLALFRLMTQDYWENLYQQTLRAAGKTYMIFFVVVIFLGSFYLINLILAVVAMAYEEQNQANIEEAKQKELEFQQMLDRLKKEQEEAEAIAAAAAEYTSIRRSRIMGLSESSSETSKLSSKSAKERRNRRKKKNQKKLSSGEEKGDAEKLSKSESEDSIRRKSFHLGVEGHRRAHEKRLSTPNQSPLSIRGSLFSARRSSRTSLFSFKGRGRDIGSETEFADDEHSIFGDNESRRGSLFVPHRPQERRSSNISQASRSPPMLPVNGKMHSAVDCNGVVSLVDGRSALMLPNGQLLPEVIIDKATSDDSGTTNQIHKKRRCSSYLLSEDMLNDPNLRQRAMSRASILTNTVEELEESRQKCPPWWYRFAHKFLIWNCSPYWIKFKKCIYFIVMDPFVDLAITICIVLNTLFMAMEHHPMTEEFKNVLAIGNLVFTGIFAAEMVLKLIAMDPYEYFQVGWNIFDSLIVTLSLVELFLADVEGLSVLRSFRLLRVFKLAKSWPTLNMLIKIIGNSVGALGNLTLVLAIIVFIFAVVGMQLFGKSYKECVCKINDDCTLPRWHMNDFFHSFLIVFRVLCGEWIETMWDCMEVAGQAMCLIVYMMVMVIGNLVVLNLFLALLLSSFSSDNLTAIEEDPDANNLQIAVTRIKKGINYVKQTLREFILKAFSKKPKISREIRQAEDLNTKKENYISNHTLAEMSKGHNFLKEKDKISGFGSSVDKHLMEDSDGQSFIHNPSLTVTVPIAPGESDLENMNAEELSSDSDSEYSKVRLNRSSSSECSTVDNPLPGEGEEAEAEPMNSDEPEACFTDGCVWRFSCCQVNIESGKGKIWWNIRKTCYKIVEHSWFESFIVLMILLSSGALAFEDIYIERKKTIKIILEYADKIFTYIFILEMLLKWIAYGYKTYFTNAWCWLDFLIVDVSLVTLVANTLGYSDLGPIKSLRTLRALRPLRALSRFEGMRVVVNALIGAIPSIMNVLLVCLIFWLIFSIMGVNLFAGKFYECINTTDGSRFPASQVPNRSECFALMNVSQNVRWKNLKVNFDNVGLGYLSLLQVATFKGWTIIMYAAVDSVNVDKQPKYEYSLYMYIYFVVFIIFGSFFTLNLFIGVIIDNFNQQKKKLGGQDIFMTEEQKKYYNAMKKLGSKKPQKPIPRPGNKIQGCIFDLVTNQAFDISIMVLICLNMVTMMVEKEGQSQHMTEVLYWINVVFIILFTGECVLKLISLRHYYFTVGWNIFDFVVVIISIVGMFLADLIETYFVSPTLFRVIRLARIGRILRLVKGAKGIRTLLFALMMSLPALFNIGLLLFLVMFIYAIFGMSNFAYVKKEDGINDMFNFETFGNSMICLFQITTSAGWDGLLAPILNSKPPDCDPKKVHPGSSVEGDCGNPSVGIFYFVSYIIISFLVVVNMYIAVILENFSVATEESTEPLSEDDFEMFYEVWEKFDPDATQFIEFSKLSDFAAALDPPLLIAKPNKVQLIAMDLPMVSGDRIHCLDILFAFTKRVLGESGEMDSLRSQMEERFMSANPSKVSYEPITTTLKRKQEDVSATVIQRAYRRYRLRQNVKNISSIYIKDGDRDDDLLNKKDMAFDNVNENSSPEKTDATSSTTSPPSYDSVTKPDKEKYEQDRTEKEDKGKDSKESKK
T1 sequence (Q07699 19-218 partner): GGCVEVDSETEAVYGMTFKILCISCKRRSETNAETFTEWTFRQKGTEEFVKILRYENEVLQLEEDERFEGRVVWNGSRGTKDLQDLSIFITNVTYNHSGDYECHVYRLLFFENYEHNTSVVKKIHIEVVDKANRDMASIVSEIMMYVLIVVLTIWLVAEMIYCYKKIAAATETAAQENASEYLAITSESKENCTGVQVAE

Row | SMILES | hNav1.7: Reduction in current at 20 mV (normalized data) Delta Ratio | hNav1.7: Voltage dependence of activation (mV) VDEP [mV] | hNav1.7: Voltage dependence of fast inactivation (mV) VDEP [mV] | hNav1.7: Shift in voltage dependence of inactivation (mV) Delta Vhalf [mV]
1 | Cc1cccc(C)c1OCC(C)NC(=O)[C@H](N)CC(C)C (stereo partly drawn) [Compound 2, (2R)-2-amino-N-(1-(2,6-dimethylphenoxy)propan-2-yl)-4-methylpentanamide] | −0.29 | −10.00 | −8.20 | −32.20
2 | NC1(C(=O)NCCOc2cc(C(F)(F)F)cc(C(F)(F)F)c2)CC1 [Compound 21, 1-amino-N-(2-(3,5-bis(trifluoromethyl)phenoxy)ethyl) cyclopropane-1-carboxamide] | 0.00 | −5.20 | −10.40 | −4.20
3 | FC(F)(F)c1cc(C(F)(F)F)c2[nH]c(C3NCc4ccccc43)nc2c1 (centres unmarked) [Compound 59, 2-(isoindolin-1-y)-4,6-bis(trifluoromethyl)-1H-benzo[d]imidazole] | −0.2 | −9 | −5.9 | −12.8
4 | O=C(NCCOc1cc(F)cc(C(F)(F)F)c1)[C@@H]1CCCN1 [Compound 22, (S)-N-(2-(3-fluoro-5-(trifluoromethyl)phenoxy)ethyl) pyrrolidine-2-carboxamide] | 0.06 | −6.50 | −1.80 | −7.00
5 | CC[C@H](C)[C@H](N)C(=O)NCCOc1cc(C(F)(F)F)cc(C(F)(F)F)c1 [Compound 7, (2S,3S)-2-amino-N-(2-(3,5-bis(trifluoromethyl)phenoxy)ethyl)-3-methylpentanamide] | −0.24 | −8.10 | −6.60 | −21.40
6 | O=C(NC12CC3CC(CC(C3)C1)C2)[C@@H]1CCCN1 [Compound 45, (S)-N-(adamantan-1-yl)pyrrolidine-2-carboxamide] | −0.07 | −5.10 | −7.00 | −6.20
7 | Cc1cccc(C)c1OCC(C)NC(=O)CCN1CCNCC1=O (centres unmarked) [Compound 36, N-(1-(2,6-dimethylphenoxy)propan-2-yl)-3-(2-oxopiperazin-1-yl)propanamide] | −0.04 | −12.90 | −5.00 | −2.90
8 | CC(C)CC(N)C(=O)N[C@H](COc1cc(C(F)(F)F)cc(C(F)(F)F)c1)c1ccccc1 (stereo partly drawn) [Compound 4, 2-amino-N-((S)-2-(3,5-bis(trifluoromethyl)phenoxy)-1-phenylethyl)-4-methylpentanamide] | −0.27 | −5.80 | −11.50 | −31.10
9 | Cc1cccc(C)c1OCC(C)NC(=O)[C@@H]1CCCN1 (stereo partly drawn) [Compound 15, (2S)-N-(1-(2,6-dimethylphenoxy)propan-2-yl)pyrrolidine-2-carboxamide] | −0.16 | −6.00 | −4.90 | −20.60
10 | CC(C)(C)OC(=O)N[C@H](Cc1cccc(C(F)(F)F)c1)C(=O)NCc1nc2ccc(Br)cc2[nH]1 [Compound 72, tert-butyl (R)-(1-(((6-bromo-1H-benzo[d]imidazol-2-yl)methyl)amino)-1-oxo-3-(3-(trifluoromethyl)phenyl)propan-2-yl)carbamate] | −0.07 | −3.3 | −7.3 | −6.7
11 | CC1(c2cc(C(F)(F)F)cc(C(F)(F)F)c2)NC(=O)NC1=O (centres unmarked) [Compound 42, 5-(3,5-bis(trifluoromethyl)phenyl)-5-methylimidazolidine-2,4-dione] | 0.02 | −6.60 | −2.50 | 0.50
12 | Cc1cccc(C)c1OCC(C)NC(=O)[C@H](N)C(C)C (stereo partly drawn) [Compound 12, (2R)-2-amino-N-(1-(2,6-dimethylphenoxy)propan-2-yl)-3-methylbutanamide] | −0.19 | −7.30 | −4.30 | −25.70
13 | N[C@H](c1ccccc1)c1nc2cc(C(F)(F)F)cc(C(F)(F)F)c2[nH]1 [Compound 57, (R)-(4,6-bis(trifluoromethyl)-1H-benzo[d]imidazol-2-yl)(phenyl)methanamine] | −0.21 | −4.7 | −4.8 | −10.4
14 | O=C(CCc1nc2cc(F)cc(F)c2[nH]1)N1CCNCC1 [Compound 66, 3-(4,6-difluoro-1H-benzo[d]imidazol-2-yl)-1-(piperazin-1-yl)propan-1-one] | −0.14 | −14.5 | −6.9 | −12.0
15 | COC[C@@H](NC(C)=O)C(=O)NCc1cc(C(F)(F)F)cc(C(F)(F)F)c1 [Compound 79, (R)-2-acetamido-N-(3,5-bis(trifluoromethyl)benzyl)-3-methoxypropanamide] | −0.04 | −15.2 | −7.9 | −5.8
16 | Cc1cccc(C)c1OCC(C)NC(=O)CC(=O)NC1CCNCC1 (centres unmarked) [Compound 34, N1-(1-(2,6-dimethylphenoxy)propan-2-yl)-N3-(piperidin-4-yl)malonamide] | −0.03 | −6.30 | −5.10 | −2.30
17 | O=C(CCc1nc2cc(C(F)(F)F)cc(C(F)(F)F)c2[nH]1)N1CCNCC1 [Compound 61, 3-(4,6-bis(trifluoromethyl)-1H-benzo[d]imidazol-2-yl)-1-(piperazin-1-yl)propan-1-one] | −0.19 | −11.3 | −5.1 | −9.2
